Assay results published in patent US20190315814A1, “LANTIBIOTIC VARIANTS AND USES THEREOF” (priority 2016, published 2019).
≈ marks a conversion by molar mass, not a printed value. Read-outs that look alike come from different tables or passages of the source.

Experiments:
[1] = tested on: Lactobacillus acidophilus (CCUG 4356)
[2] = tested on: VRE Enterococcus faecalis; conditions: VRE
[3] = tested on: Eggerthella lenta (ATCC 27337)
[4] = tested on: Clostridium scindens (ATCC 35704)
[5] = tested on: Peptostreptococcus anaerobius (ATCC 27337)
[6] = tested on: Clostridium difficile UNT103-1; assay: Non-cannulated Syrian hamster C. difficile infection model, oral gavage; type: in vivo, Golden Syrian hamsters; conditions: for Percent Survival at Day-22: oral gavage TID Days 2-6, vancomycin 20 mg/kg once a day; for Toxin A level at Day-22 / Mean LOG10 CFU/mL of feces homogenates (cecal spore counts) at Day-22 / Toxin B level at Day-22: oral gavage; for Toxin A level at Day-22: first value of A/B cell; for Toxin A level at Day-22 / Toxin B level at Day-22: limit of detection 0.8; for Mean LOG10 CFU/mL of feces homogenates (cecal spore counts) at Day-22: limit of detection 2.40; for Toxin B level at Day-22: second value of A/B cell
Method: Following the recovery phase, male Golden Syrian hamsters were inoculated with Clostridium difficile UNT103-1 (VA11, non epidemic (cdtB-, REA group J) Curtis Donskey, Cleveland VA Hospital, Cleveland, Ohio). On Day 1, at 24 hrs after infection, all animals received a single subcutaneous injection of clindamycin (10 mg/kg). Test article formulations were administered three times per day (TID), starting on Day 2 at 18 hours after Clindamycin injection, for 5 consecutive days (Days 2 through 6), and followed until Day 22 to assess recurrence. Vancomycin (positive control) was administered once a day at 20 mg/kg on Days 2 through 6. Cecal spore counts and Toxins A and B were determined as described above

in vitro = conditions: simulated gi fluid
Method: Assay incubation conditions included […] simulated gastric fluid (SGF, USP 39 Test Solution; 2 g/L NaCl, 7 mL/L glacial HCl, pH 1.4) containing 1.75 mg/mL Pepsin (3200-4500 U/mg) mixed with 7.5 μL of 10 mg/mL variant (or positive control, NH2-Met-Arg-Phe-Ala-OH, MRFA, CAS#67368-29-0) for a final concentration of 300 μg/ml variant in a microfuge tube. Samples were incubated at 37° C. and analyzed using HPLC or LC-MS for loss of substrate. The percent remaining, elimination rate constant (Ke), and in vitro protein half-lives were calculated. A control of SGF without enzyme was also run and analyzed in the same manner for each variant.

[7] = simulated gi fluid
[8] = FaSSIF + 1% pancreatin + 3 μg/ml trypsin + 3 μg/ml chymotrypsin half-life

Structure (SMILES) | MIC L. acidophilus [1] | MIC VRE ATCC 51575 [2] | MIC VRE CCUG 47775 [2] | MIC VRE ATCC 700221 (VRE Enterococcus faecium) | MIC E. lenta [3] | MIC to H. Pylori without EDTA (Heliobacter pylori) | MIC to H. Pylori with 0.05M EDTA (Heliobacter pylori) | MIC C. scindens [4] | MIC P. anaerobius [5] | Percent Survival at Day-22 [6] | Toxin A level at Day-22 [6] | Mean LOG10 CFU/mL of feces homogenates (cecal spore counts) at Day-22 [6] | Toxin B level at Day-22 [6] | half-life (in vitro) | half-life [7, 8] | half-life ([7]; FaSSIF only half-life)
C=C1NC(=O)[C@H](Cc2c[nH]c3ccccc23)NC(=O)[C@H](NC(=O)[C@H](CCCCN)NC(=O)[C@@H](N)[C@@H](C)CC)CSC[C@@H](C(=O)N[C@H]2C(=O)N3CCC[C@H]3C(=O)NCC(=O)N[C@H](C(=O)N[C@@H](C)C(=O)N[C@@H](C)C(=O)NC(=CC)C(=O)NCC(=O)N[C@@H]3CSC[C@@H]4NC(=O)[C@H](Cc5ccc(O)cc5)NC(=O)[C@@H](CS/C=C\NC4=O)NC(=O)[C@H](CC(N)=O)NC(=O)[C@H](Cc4ccccc4)NC3=O)CS[C@H]2C)NC(=O)[C@H](CC(C)C)NC1=O [F1I R13A] | 0.5 µg/mL (≈ 0.233 µM) | 16 µg/mL (≈ 7.46 µM) | 16 µg/mL (≈ 7.46 µM) | 8 µg/mL (≈ 3.73 µM) | 2 µg/mL (≈ 0.932 µM) | 8 µg/mL (≈ 3.73 µM) | 8 µg/mL | 4 µg/mL (≈ 1.86 µM) | 1 µg/mL (≈ 0.466 µM) | 50% | 147 ng/mL | 4.67 LOG10 CFU/mL | 205.5 ng/mL | > 24 h | > 12 h | > 12 h
C=C1NC(=O)[C@H](Cc2c[nH]c3ccccc23)NC(=O)[C@H](NC(=O)[C@H](CCCCN)NC(=O)[C@@H](N)[C@@H](C)CC)CSC[C@@H](C(=O)N[C@H]2C(=O)N3CCC[C@H]3C(=O)NCC(=O)N[C@H](C(=O)N[C@@H](C)C(=O)N[C@@H](CC(=O)O)C(=O)NC(=CC)C(=O)NCC(=O)N[C@@H]3CSC[C@@H]4NC(=O)[C@H](Cc5ccc(O)cc5)NC(=O)[C@@H](CS/C=C\NC4=O)NC(=O)[C@H](CC(N)=O)NC(=O)[C@H](Cc4ccccc4)NC3=O)CS[C@H]2C)NC(=O)[C@H](CC(C)C)NC1=O [F1I R13D] | 2 µg/mL (≈ 0.913 µM) | 32 µg/mL (≈ 14.6 µM) | 32 µg/mL (≈ 14.6 µM) | 32 µg/mL (≈ 14.6 µM) | 2 µg/mL (≈ 0.913 µM) | 8 µg/mL (≈ 3.65 µM) | 8 µg/mL | 8 µg/mL (≈ 3.65 µM) | 1 µg/mL (≈ 0.457 µM) | 50% | 648.5 ng/mL | 4.8 LOG10 CFU/mL | 216.6 ng/mL | > 24 h | > 12 h | > 12 h
C=C1NC(=O)[C@H](Cc2c[nH]c3ccccc23)NC(=O)[C@H](NC(=O)[C@H](CCCCN)NC(=O)[C@@H](N)[C@@H](C)CC)CSC[C@@H](C(=O)N[C@H]2C(=O)N3CCC[C@H]3C(=O)NCC(=O)N[C@H](C(=O)N[C@@H](C)C(=O)N[C@@H](CC(N)=O)C(=O)NC(=CC)C(=O)NCC(=O)N[C@@H]3CSC[C@@H]4NC(=O)[C@H](Cc5ccc(O)cc5)NC(=O)[C@@H](CS/C=C\NC4=O)NC(=O)[C@H](CC(N)=O)NC(=O)[C@H](Cc4ccccc4)NC3=O)CS[C@H]2C)NC(=O)[C@H](CC(C)C)NC1=O [F1I R13N] | 0.5 µg/mL (≈ 0.228 µM) | 16 µg/mL (≈ 7.31 µM) | 16 µg/mL (≈ 7.31 µM) | 32 µg/mL (≈ 14.6 µM) | 0.5 µg/mL (≈ 0.228 µM) | 8 µg/mL (≈ 3.66 µM) | 8 µg/mL | 2 µg/mL (≈ 0.914 µM) | 0.25 µg/mL (≈ 0.114 µM) | 66% | 138.1 ng/mL | 3.64 LOG10 CFU/mL | 120.2 ng/mL | > 24 h | > 12 h | > 12 h
C=C1NC(=O)[C@H](Cc2c[nH]c3ccccc23)NC(=O)[C@H](NC(=O)[C@H](CCCCN)NC(=O)[C@@H](N)CC(C)C)CSC[C@@H](C(=O)N[C@H]2C(=O)N3CCC[C@H]3C(=O)NCC(=O)N[C@H](C(=O)N[C@@H](C)C(=O)N[C@@H](C)C(=O)NC(=CC)C(=O)NCC(=O)N[C@@H]3CSC[C@@H]4NC(=O)[C@H](Cc5ccc(O)cc5)NC(=O)[C@@H](CS/C=C\NC4=O)NC(=O)[C@H](CC(N)=O)NC(=O)[C@H](Cc4ccccc4)NC3=O)CS[C@H]2C)NC(=O)[C@H](CC(C)C)NC1=O [F1L R13A] | 0.5 µg/mL (≈ 0.233 µM) | 32 µg/mL (≈ 14.9 µM) | 16 µg/mL (≈ 7.46 µM) | 16 µg/mL (≈ 7.46 µM) | 0.5 µg/mL (≈ 0.233 µM) | 8 µg/mL (≈ 3.73 µM) | 8 µg/mL | 4 µg/mL (≈ 1.86 µM) | 0.5 µg/mL (≈ 0.233 µM) | 0% | 4532.5 ng/mL | 7.28 LOG10 CFU/mL | 1795.5 ng/mL | > 24 h | > 12 h | > 12 h
C=C1NC(=O)[C@H](Cc2c[nH]c3ccccc23)NC(=O)[C@H](NC(=O)[C@H](CCCCN)NC(=O)[C@@H](N)CC(C)C)CSC[C@@H](C(=O)N[C@H]2C(=O)N3CCC[C@H]3C(=O)NCC(=O)N[C@H](C(=O)N[C@@H](C)C(=O)N[C@@H](CC(N)=O)C(=O)NC(=CC)C(=O)NCC(=O)N[C@@H]3CSC[C@@H]4NC(=O)[C@H](Cc5ccc(O)cc5)NC(=O)[C@@H](CS/C=C\NC4=O)NC(=O)[C@H](CC(N)=O)NC(=O)[C@H](Cc4ccccc4)NC3=O)CS[C@H]2C)NC(=O)[C@H](CC(C)C)NC1=O [F1L R13N] | 0.5 µg/mL (≈ 0.228 µM) | 16 µg/mL (≈ 7.31 µM) | 16 µg/mL (≈ 7.31 µM) | 16 µg/mL (≈ 7.31 µM) | 0.25 µg/mL (≈ 0.114 µM) | 8 µg/mL (≈ 3.66 µM) | 8 µg/mL | 4 µg/mL (≈ 1.83 µM) | 0.25 µg/mL (≈ 0.114 µM) | 0% | 5477.8 ng/mL | 7.36 LOG10 CFU/mL | 2189.1 ng/mL | > 24 h | > 12 h | > 12 h
